Data on 13 compounds can be found in patent publication US6117841A, “Substituted peptidylamine calcium channel blockers” (Warner-Lambert Company, priority 1999, dated 2000).

For one experiment, the target named is T1, N-type Ca^2+ Channel (Homo sapiens, UniProt Q00975).
T1 construct: host or cells: IMR-32 cells differentiated with dibutyryl cAMP and bromodeoxyuridine
Kind of experiment: Measurement of N-type Ca2+ channel blocking potencies in IMR-32 cells using the fluorescent Ca2+ indicator Indo-1. In kind it is cell-based. Particulars: IMR-32 cells. An outline of the steps: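 IMR-32 cells were differentiated 7–13 days (1 mM dibutyryl cAMP, 2.5 µM BrdU) and Indo-1-loaded. They were preincubated 10 min at 30 °C with compound and 5 µM nitrendipine in HEPES/Tris pH 7.4 HBSS with 0.5% BSA, then KCl/CaCl2-depolarized. The peak-minus-basal 400/490 nm emission ratio gave IC50 by four-parameter logistic fit.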

The next experiment deals with DBA/2 mice. The experiment can be described thus: In vivo anticonvulsant activity, sound-induced tonic seizures in DBA/2 mice. To be noted: tested 15 or 45 minutes after injection; for DBA/2 mice % Protection (10 mg/kg): 10 mg/kg intravenous; for DBA/2 mice % Protection dose @ 30 mg/kg: 30 mg/kg intravenous. On the procedure:
A compound of the present invention was dissolved in water using 10% (weight/volume) Emulphor (GAF Corp., Wayne, N.J.) surfactant. Substances were administered by intravenous injection into the retro-orbital venous sinus. All testing was performed 15 minutes or 45 minutes after drug injection. All the male mice, 3-4 weeks old were obtained from Jackson Laboratories Bar Harbour, Me. Immediately before anticonvulsant testing, mice were placed upon a wire mesh, 4 inches square suspended from a steel rod. The square was slowly inverted through 180 degrees and mice observed for 30 seconds. Any mouse falling from the wire mesh was scored as ataxia.
Mice were placed into an enclosed acrylic plastic chamber (21 cm height, approximately 30 cm diameter) with a high-frequency speaker (4 cm diameter) in the center of the top lid. An audio signal generator (Protek model B-810) was used to produce a continuous sinusoidal tone that was swept linearly in frequency between 8 kHz and 16 kHz once each 10 msec. The average sound pressure level (SPL) during stimulation was approximately 100 dB at the floor of the chamber. Mice were placed within the chamber and allowed to acclimatize for 1 minute. DBA/2 mice in the vehicle-treated group responded to the sound stimulus (applied until tonic extension occurred, or for a maximum of 60 sec) with a characteristic seizure sequence consisting of wild running followed by clonic seizures, and later by tonic extension, and finally by respiratory arrest and death in 80% or more of the mice. In vehicle-treated mice, the entire sequence of seizures to respiratory arrest lasts approximately 15-20 seconds.
The incidence of all the seizure phases in the drug-treated and vehicle-treated mice was recorded, and the occurrence of tonic seizures were used for calculatine anticonvulsant ED50 values by probit analysis. Mice were used only once for testing at each time and dose point.

The mark [1] stands for this setting: K+ depolarization, 5 μM nitrendipine to block L-type channels, read-out: IMR 32 IC50.
[2] abbreviates: 5 μM nitrendipine, Examples 116-140, read-out: IMR 32% of Blockade @.

pIC50: −log10 of the molar value. Read-outs that look alike come from different tables or passages of the source.

T1 sequence (Q00975 whole entry): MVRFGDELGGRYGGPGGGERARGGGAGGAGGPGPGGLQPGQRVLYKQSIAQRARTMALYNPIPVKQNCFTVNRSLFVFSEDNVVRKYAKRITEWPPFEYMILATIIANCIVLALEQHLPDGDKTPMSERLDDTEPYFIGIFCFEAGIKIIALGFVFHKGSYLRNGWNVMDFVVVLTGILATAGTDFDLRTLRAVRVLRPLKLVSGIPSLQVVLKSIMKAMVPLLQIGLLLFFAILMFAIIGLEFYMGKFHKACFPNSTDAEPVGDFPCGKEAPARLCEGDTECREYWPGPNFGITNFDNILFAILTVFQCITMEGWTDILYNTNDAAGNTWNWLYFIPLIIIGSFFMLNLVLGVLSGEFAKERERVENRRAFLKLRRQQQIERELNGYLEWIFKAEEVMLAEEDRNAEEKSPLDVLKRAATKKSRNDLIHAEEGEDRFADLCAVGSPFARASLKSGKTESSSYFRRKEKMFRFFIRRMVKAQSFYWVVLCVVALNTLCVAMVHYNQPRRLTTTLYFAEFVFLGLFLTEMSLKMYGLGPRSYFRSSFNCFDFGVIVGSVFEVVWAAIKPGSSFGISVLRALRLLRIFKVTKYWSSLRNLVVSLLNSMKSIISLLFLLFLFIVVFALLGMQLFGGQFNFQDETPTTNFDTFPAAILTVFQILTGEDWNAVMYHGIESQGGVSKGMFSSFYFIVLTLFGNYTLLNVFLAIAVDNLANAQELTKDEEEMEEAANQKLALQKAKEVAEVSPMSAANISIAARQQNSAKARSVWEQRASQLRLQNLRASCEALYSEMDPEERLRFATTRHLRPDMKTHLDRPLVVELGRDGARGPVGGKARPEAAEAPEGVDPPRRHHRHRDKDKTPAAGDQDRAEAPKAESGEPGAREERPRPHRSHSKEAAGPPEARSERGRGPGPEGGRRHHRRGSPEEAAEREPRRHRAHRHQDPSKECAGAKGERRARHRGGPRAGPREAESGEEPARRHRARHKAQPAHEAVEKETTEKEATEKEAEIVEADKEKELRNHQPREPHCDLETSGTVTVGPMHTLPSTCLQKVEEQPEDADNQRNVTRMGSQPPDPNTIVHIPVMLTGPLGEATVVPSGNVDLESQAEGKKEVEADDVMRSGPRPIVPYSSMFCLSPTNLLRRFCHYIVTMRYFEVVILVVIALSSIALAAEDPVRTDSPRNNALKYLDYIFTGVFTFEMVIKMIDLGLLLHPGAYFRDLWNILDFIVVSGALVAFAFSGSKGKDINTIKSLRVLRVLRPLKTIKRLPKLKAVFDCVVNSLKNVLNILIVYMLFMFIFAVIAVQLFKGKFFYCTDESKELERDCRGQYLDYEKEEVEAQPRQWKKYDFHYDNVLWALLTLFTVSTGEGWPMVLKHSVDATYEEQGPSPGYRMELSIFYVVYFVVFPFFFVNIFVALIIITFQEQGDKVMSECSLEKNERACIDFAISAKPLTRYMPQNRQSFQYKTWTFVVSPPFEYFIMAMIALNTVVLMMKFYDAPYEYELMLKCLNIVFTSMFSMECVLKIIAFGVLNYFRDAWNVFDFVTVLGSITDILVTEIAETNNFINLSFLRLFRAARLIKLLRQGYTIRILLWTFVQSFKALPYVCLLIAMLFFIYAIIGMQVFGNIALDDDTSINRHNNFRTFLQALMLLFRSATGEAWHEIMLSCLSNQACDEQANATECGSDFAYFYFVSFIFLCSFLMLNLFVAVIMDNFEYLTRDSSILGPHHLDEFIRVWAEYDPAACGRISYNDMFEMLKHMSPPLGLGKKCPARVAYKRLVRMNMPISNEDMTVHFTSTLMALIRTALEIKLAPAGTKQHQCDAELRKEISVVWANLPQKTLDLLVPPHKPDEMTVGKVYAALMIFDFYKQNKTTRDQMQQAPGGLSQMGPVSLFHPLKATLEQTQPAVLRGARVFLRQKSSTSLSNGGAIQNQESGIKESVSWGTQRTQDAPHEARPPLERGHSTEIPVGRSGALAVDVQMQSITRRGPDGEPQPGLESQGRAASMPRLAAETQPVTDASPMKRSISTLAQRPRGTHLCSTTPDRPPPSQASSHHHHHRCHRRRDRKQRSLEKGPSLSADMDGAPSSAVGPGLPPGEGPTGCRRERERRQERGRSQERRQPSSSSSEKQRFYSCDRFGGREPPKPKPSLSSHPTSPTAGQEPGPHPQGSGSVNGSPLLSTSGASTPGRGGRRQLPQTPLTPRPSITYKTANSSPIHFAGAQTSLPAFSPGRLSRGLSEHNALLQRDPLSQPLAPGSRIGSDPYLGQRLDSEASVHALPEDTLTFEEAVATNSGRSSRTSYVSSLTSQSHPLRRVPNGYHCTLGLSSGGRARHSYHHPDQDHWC
T1 sequence (P54284 whole entry partner): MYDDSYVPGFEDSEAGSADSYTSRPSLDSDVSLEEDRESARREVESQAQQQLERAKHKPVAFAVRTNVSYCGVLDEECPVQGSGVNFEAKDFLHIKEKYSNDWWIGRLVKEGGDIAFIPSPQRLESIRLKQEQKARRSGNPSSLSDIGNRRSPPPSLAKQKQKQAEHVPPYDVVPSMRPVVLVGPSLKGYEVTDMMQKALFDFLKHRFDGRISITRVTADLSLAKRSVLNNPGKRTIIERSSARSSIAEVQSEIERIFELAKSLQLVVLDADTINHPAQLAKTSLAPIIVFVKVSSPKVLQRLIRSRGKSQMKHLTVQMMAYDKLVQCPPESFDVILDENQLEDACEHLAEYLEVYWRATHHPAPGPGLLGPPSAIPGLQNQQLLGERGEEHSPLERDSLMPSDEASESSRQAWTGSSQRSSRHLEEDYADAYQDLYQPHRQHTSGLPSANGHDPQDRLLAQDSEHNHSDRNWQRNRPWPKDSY
T1 sequence (P54289 25-946 partner limits assumed): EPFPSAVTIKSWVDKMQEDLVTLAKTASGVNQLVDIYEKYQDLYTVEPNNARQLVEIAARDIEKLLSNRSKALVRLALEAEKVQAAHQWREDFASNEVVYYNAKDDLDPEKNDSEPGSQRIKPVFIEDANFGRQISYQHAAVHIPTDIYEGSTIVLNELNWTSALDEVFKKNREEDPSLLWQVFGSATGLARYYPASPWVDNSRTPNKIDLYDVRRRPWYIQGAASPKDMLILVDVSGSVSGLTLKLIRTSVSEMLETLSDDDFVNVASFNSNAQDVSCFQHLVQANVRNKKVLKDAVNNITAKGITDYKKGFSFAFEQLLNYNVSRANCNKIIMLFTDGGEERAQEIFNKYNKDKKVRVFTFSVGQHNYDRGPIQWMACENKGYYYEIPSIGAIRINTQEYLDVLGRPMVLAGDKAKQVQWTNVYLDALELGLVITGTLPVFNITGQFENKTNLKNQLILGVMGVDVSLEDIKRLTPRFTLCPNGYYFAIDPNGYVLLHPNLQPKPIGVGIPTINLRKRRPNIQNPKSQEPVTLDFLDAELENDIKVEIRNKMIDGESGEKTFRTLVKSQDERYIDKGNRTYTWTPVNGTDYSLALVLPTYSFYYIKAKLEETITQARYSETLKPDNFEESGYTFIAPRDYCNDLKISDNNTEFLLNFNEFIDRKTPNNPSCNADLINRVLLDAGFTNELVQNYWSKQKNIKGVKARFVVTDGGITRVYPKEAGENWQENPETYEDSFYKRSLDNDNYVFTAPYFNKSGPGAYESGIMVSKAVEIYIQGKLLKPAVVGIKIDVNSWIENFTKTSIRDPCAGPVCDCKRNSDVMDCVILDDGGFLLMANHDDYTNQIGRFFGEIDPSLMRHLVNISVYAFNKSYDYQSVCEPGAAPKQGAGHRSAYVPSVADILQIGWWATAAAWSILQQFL
T1 sequence (P54289 947-1103 partner limits assumed): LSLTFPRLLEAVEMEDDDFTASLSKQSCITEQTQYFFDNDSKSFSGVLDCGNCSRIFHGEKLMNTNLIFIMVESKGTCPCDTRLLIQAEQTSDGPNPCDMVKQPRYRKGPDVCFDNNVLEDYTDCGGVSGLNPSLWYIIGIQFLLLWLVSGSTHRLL

In the case of `CCC(C)N(C)C(CC(C)C)C(=O)NC(Cc1ccc(OCc2ccccc2)cc1)C(=O)NC(C)(C)C` (racemic) [Example 103, [S-[R*,R*,(RS)]]-2-(sec-Butyl-methyl-amino)-4-methyl-pentanoic acid [2-(4-benzyloxy-phenyl)-1-tert-butylcarbamoyl-ethyl]-amide], the pIC50 at N-type Ca^2+ Channel (setting [1]) is 5.82. Moreover, the “DBA/2 mice % Protection (10 mg/kg)” value in the experiment on DBA/2 mice worked out at 100%.

As for `CC(C)CCN(C)[C@@H](CC(C)C)C(=O)N[C@@H](Cc1ccc(OCc2ccccc2)cc1)C(=O)NC(C)(C)C` (relative stereo) [Example 7, [S-(R*,R*)]-4-Methyl-2-[methyl-(3-methyl-butyl)-amino]-pentanoic acid [2-(4-benzyloxy-phenyl)-1-tert-butylcarbamoyl-ethyl]-amide], the pIC50 at N-type Ca^2+ Channel (setting [1]) was 6.49. The “DBA/2 mice % Protection dose @ 30 mg/kg” value in the experiment on DBA/2 mice worked out at 100%. In the same order, the values of `CC(C)C[C@@H](C(=O)N[C@@H](Cc1ccc(OCc2ccccc2)cc1)C(=O)NC(C)(C)C)N(C)CC1CCCCC1` (relative stereo) [Example 25, [S-(R*,R*)]-2-(Cyclohexylmethyl-methyl-amino)-4-methyl-pentanoic acid [2-(4-benzyloxy-phenyl)-1-tert-butylcarbamoyl-ethyl]-amide] are 6.17 and 100%. As to `CC(C)CCN(C)[C@@H](CC(C)C)C(=O)N[C@H](Cc1ccc(OCc2ccccc2)cc1)C(=O)NC(C)(C)C` (relative stereo) [Example 84, [S-(R*,S*)]-4-Methyl-2-[methyl-(3-methyl-butyl)-amino]-pentanoic acid [2-(4-benzyloxy-phenyl)-1-tert-butylcarbamoyl-ethyl]-amide], the pIC50 on N-type Ca^2+ Channel (setting [1]) was 6.43. Moreover, in the experiment on DBA/2 mice, the “DBA/2 mice % Protection (10 mg/kg)” value was found to be 100%. Regarding `CC(C)C[C@@H](C(=O)N[C@@H](Cc1ccc(OCc2ccccc2)cc1)C(=O)NC(C)(C)C)N(C)Cc1ccco1` (relative stereo) [Example 90, [S-(R*,R*)]-2-(Furan-2-ylmethyl-methyl-amino)-4-methyl-pentanoic acid [2-(4-benzyloxy-phenyl)-1-tert-butylcarbamoyl-ethyl]-amide], the pIC50 on N-type Ca^2+ Channel (setting [1]) is 6.05. In addition, the “DBA/2 mice % Protection dose @ 30 mg/kg” value with DBA/2 mice is 60%.

As for `CC(C)C[C@H](NC1CCCCC1)C(=O)N[C@@H](Cc1ccc(OCc2ccccc2)cc1)C(=O)OC(C)(C)C` (relative stereo) [Example 93, [S-(R*,R*)]-3-(4-Benzyloxy-phenyl)-2-(2-cyclohexylamino-4-methyl-pentanoylamino)-propionic acid tert-butyl ester], the pIC50 on N-type Ca^2+ Channel (setting [1]) was 6.70. Besides, in the experiment with DBA/2 mice, the “DBA/2 mice % Protection dose @ 30 mg/kg” value came to 80%.

On to `CC(C)C[C@@H](C(=O)N[C@@H](Cc1ccc(OCc2ccccc2)cc1)C(=O)NC(C)(C)C)N(C)CCC(C)O` (relative stereo) [Example 97, [S-(R*,R*)]-2-[(3-Hydroxy-butyl)-methyl-amino]-4-methyl-pentanoic acid [2-(4-benzyloxy-phenyl)-1-tert-butylcarbamoyl-ethyl]-amide], for which the pIC50 on N-type Ca^2+ Channel (setting [1]) was 5.66. In addition, the “DBA/2 mice % Protection dose @ 30 mg/kg” value with DBA/2 mice worked out at 40%.

For the compound `CC(C)CC(C(=O)NC(Cc1ccc(OCc2ccccc2)cc1)C(=O)NC(C)(C)C)N(C)Cc1ccc(C(C)(C)C)cc1` (stereo not drawn) [Example 13, [S-(R*,R*)]-2-[(4-tert-Butyl-benzyl)-methyl-amino]-4-methyl-pentanoic acid [2-(4-benzyloxy-phenyl)-1-tert-butylcarbamoyl-ethyl]-amide], the pIC50 at N-type Ca^2+ Channel (setting [1]) is 7.40. Further, in the experiment with DBA/2 mice, the “DBA/2 mice % Protection dose @ 30 mg/kg” value is 60%. For `CC(C)=CCNC(CC(C)C)C(=O)NC(Cc1ccc(OCc2ccccc2)cc1)C(=O)OC(C)(C)C` (stereo not drawn) [Example 31, [S-(R*,R*)]-3-(4-Benzyloxy-phenyl)-2-[4-methyl-2-(3-methyl-but-2-enylamino)-pentanoylamino]-propionic acid tert-butyl ester], in that order: 6.49 and 100%. Turning to `CC(C)CC(C(=O)NC(Cc1ccc(OCc2ccccc2)cc1)C(=O)NC(C)(C)C)N(C)C1C=CCCC1` (stereo not drawn) [Example 47, [S-(R*,R*)]-2-(Cyclohex-2-enyl-methyl-amino)-4-methyl-pentanoic acid [2-(4-benzyloxy-phenyl)-1-tert-butylcarbamoyl-ethyl]-amide], the pIC50 on N-type Ca^2+ Channel (setting [1]) is 6.55. In addition, the “DBA/2 mice % Protection dose @ 30 mg/kg” value with DBA/2 mice turned out to be 100%. For `CC(C)CC(NC(C)C)C(=O)NC(Cc1ccc(OCc2ccccc2)cc1)C(=O)OC(C)(C)C` (stereo not drawn) [Example 92, [S-(R*,R*)]-3-(4-Benzyloxy-phenyl)-2-(2-isopropylamino4-methyl-pentanoylamino)-propionic acid tert-butyl ester], in that order: 6.10 and 100%. Consider “[S-(R*,R*)]-4-Methyl-2-(tetrahydropyran-4-yl-amino)-pentanoic acid [2-(4-benzyloxy-phenyl)-1-(4-hydroxy-piperinylcarbamoyl]-amide [Example 131]”, for which the pIC50 at N-type Ca^2+ Channel (setting [2]) was 5.00.

On to “[S-(R*,R*)]-4-Methyl-2-(tetrahydropyran-4-yl-amino)-pentanoic acid [2-(4-benzyloxy-phenyl)-1-(-(2-pyridin-2-yl-ethylcarbamoyl)-ethyl]-amide [Example 128]”, for which the pIC50 on N-type Ca^2+ Channel (setting [2]) was 5.41.
